Data from patent US5834032A, “Compositions and methods for treating diabetes” (priority 1997, dated 1998).

Tests used:
Format in all cases: in vivo, rat
diabetic rats [1] = test: Blood glucose concentration changes (regression slope) during dietary feeding of defined chemical species (Example 2); conditions: Table 6
Excerpt: (§1) Rats were first made diabetic by injection with streptozotocin, and then allowed to stabilize for a period of two weeks. […] After the two week period, the surviving diabetic rats were divided into seven groups and provided either with plain drinking water as a control, or drinking water containing one of six compositions to be tested for their effects on various parameters associated with the diabetic condition. Constituents included in these compositions, in varying combinations, were: zinc (20 mg/L); L-histidine (20 mg/L); arachidonic acid (100 mg/L); testosterone (100 mg/L); and C-Hispro (10 mg/L).
(§2) Diabetic rats receiving one of the six test compositions or control drinking water were monitored for blood glucose concentration, body weight and water consumption over a period of about one month. Values for these parameters were plotted on a graph, and a regression line drawn. […] Thus, if the blood glucose concentration increased substantially steadily over the course of the experiment, the slope of the regression line was reported along with the number of days duration during which the change was monitored.

diabetic rats [2] = test: Blood glucose in diabetic rats administered arachidonic acid and 0.5 mg/kg/day L-histidine (dose optimisation)
Protocol: In the experiment used to produce the results presented in Table 11, the concentration of AA was varied and the L-histidine concentration was held constant. Thus, a range of from 3-30 mg/kg/day of AA provided a therapeutic benefit, with a range of from 10-12 mg/kg/day of AA providing the greatest benefit.

diabetic rats [3] = test: Water consumption by diabetic rats during administration of chemicals in drinking water (Example 2); conditions: Table 8
Excerpt: as §1, §2

diabetic rats [4] = test: Optimizing the level of C-Hispro intake for improving diabetes (blood glucose); conditions: for Mean mg glucose/dL after Tmt / Mean mg glucose/dL before Tmt: 10 mg Zn/L in drinking water; for Changes of mg glucose/dL: 10 mg Zn/L, decrease
Protocol: The results presented in Table 9 were used to determine the optimal concentration of C-Hispro useful for improving the symptoms associated with diabetes. Since rats consuming water containing C-Hispro ad libitum also consumed the lowest water volume as evidenced by the results in Table 8, the optimal concentration of C-Hispro for improving the symptoms of diabetes was determined by providing animals with water containing different concentrations of c-Hispro. The amounts of consumed were determined by measuring the amount of water consumed, dividing this value by the weight of the rat and multiplying the result by the c-Hispro concentration. The amount of C-Hispro intake for the most dramatic improvement of symptoms of diabetes was about 300 μg/kg/day, based on the results presented in Tables 9 and 10. […] Similar ranges of dosages also are expected to be useful for treating diabetic mammals, including humans.

[5] = arachidonic acid 0 mg/kg/day, 0.5 mg/kg/day L-histidine
[6] = arachidonic acid 2.02 to 2.39 mg/kg/day, plus 0.5 mg/kg/day L-histidine
[7] = arachidonic acid 3.04 to 3.58 mg/kg/day, plus 0.5 mg/kg/day L-histidine
[8] = arachidonic acid 4.05 to 4.78 mg/kg/day, plus 0.5 mg/kg/day L-histidine
[9] = arachidonic acid 5.06 to 5.97 mg/kg/day, plus 0.5 mg/kg/day L-histidine
[10] = arachidonic acid 10.12 to 11.95 mg/kg/day, plus 0.5 mg/kg/day L-histidine
[11] = arachidonic acid 15.18 to 17.91 mg/kg/day, plus 0.5 mg/kg/day L-histidine
[12] = arachidonic acid 20.24 to 23.88 mg/kg/day, plus 0.5 mg/kg/day L-histidine
[13] = arachidonic acid 25.30 to 29.85 mg/kg/day, plus 0.5 mg/kg/day L-histidine
[14] = C-Hispro intake 217 to 231 μg/kg, restricted water intake
[15] = C-Hispro intake 281 to 290 μg/kg, unrestricted water intake
[16] = C-Hispro intake 303 to 337 μg/kg, restricted water intake
[17] = C-Hispro intake 386 to 466 μg/kg, unrestricted water intake
[18] = C-Hispro intake 448 to 463 μg/kg, restricted water intake
[19] = C-Hispro intake 452 to 554 μg/kg, unrestricted water intake
[20] = C-Hispro intake 554 to 597 μg/kg, restricted water intake
[21] = C-Hispro intake 569 to 680 μg/kg, unrestricted water intake

C[C@]12CC[C@H]3[C@@H](CCC4=CC(=O)CC[C@@]43C)[C@@H]1CC[C@@H]2O [testosterone]
benefit of including testosterone in the composition (diabetic rats [1]): no apparent benefit

N[C@@H](Cc1c[nH]cn1)C(=O)O [L-Histidine, L-histidine]
effect of L-histidine in the drinking water on diabetes (diabetic rats [2]; 0.5 mg/kg L-histidine): improved diabetes | mg glu/dL Post-Treatment (diabetic rats [2]; [5]): 304 ± 50 mg glu/dL | mg glu/dL Pre-Treatment (diabetic rats [2]; [5]): 204 ± 22 mg glu/dL | mg glu/dL improvement (diabetic rats [2]; arachidonic acid 0 mg/kg/day, 0.5 mg/kg/day L-histidine, negative = increase): -100 ± 62 mg glu/dL

CCCCC/C=C\C/C=C\C/C=C\C/C=C\CCCC(=O)O [arachidonic acid]
range of AA providing the greatest benefit (diabetic rats [2]; L-histidine held constant): 10 to 12 mg/kg/day | range of AA that provided a therapeutic benefit (diabetic rats [2]; L-histidine held constant): 3 to 30 mg/kg/day | optimal amount of AA for improving the symptoms of diabetes in rats (diabetic rats [2]; L-histidine held constant (0.5 mg/kg/day)): about 10 mg/kg/day | mg glu/dL Post-Treatment (diabetic rats [2]; [6]): 321 ± 34 mg glu/dL | mg glu/dL Pre-Treatment (diabetic rats [2]; [6]): 263 ± 48 mg glu/dL | mg glu/dL improvement (diabetic rats [2]; [6]): -58 ± 16 mg glu/dL | mg glu/dL Post-Treatment (diabetic rats [2]; [7]): 256 ± 25 mg glu/dL | mg glu/dL Pre-Treatment (diabetic rats [2]; [7]): 303 ± 23 mg glu/dL | mg glu/dL improvement (diabetic rats [2]; [7]): 47 ± 26 mg glu/dL | mg glu/dL Post-Treatment (diabetic rats [2]; [8]): 247 ± 32 mg glu/dL | mg glu/dL Pre-Treatment (diabetic rats [2]; [8]): 308 ± 17 mg glu/dL | mg glu/dL improvement (diabetic rats [2]; [8]): 61 ± 43 mg glu/dL | mg glu/dL Post-Treatment (diabetic rats [2]; [9]): 252 ± 29 mg glu/dL | mg glu/dL Pre-Treatment (diabetic rats [2]; [9]): 426 ± 56 mg glu/dL | mg glu/dL improvement (diabetic rats [2]; [9]): 174 ± 53 mg glu/dL | mg glu/dL Post-Treatment (diabetic rats [2]; [10]): 187 ± 15 mg glu/dL | mg glu/dL Pre-Treatment (diabetic rats [2]; [10]): 393 ± 23 mg glu/dL | mg glu/dL improvement (diabetic rats [2]; [10]): 206 ± 25 mg glu/dL | mg glu/dL Post-Treatment (diabetic rats [2]; [11]): 184 ± 16 mg glu/dL | mg glu/dL Pre-Treatment (diabetic rats [2]; [11]): 368 ± 25 mg glu/dL | mg glu/dL improvement (diabetic rats [2]; [11]): 184 ± 30 mg glu/dL | mg glu/dL Post-Treatment (diabetic rats [2]; [12]): 241 ± 18 mg glu/dL | mg glu/dL Pre-Treatment (diabetic rats [2]; [12]): 379 ± 25 mg glu/dL | mg glu/dL improvement (diabetic rats [2]; [12]): 138 ± 33 mg glu/dL | mg glu/dL Post-Treatment (diabetic rats [2]; [13]): 301 ± 27 mg glu/dL | mg glu/dL Pre-Treatment (diabetic rats [2]; [13]): 443 ± 52 mg glu/dL | mg glu/dL improvement (diabetic rats [2]; [13]): 142 ± 66 mg glu/dL

O=C1N[C@@H](Cc2cnc[nH]2)C(=O)N2CCC[C@@H]12 [C-Hispro, cyclo-Hispro]
water consumption compared to the other groups (diabetic rats [3]): lower than in the other groups tested | Mean mg glucose/dL after Tmt (diabetic rats [4]; [14]): 213 ± 43 mg glucose/dL | Mean mg glucose/dL before Tmt (diabetic rats [4]; [14]): 372 ± 33 mg glucose/dL | Changes of mg glucose/dL (diabetic rats [4]; [14]): 159 ± 45 mg glucose/dL | Mean mg glucose/dL after Tmt (diabetic rats [4]; [15]): 258 ± 27 mg glucose/dL | Mean mg glucose/dL before Tmt (diabetic rats [4]; [15]): 373 ± 30 mg glucose/dL | Changes of mg glucose/dL (diabetic rats [4]; [15]): 115 ± 33 mg glucose/dL | Mean mg glucose/dL after Tmt (diabetic rats [4]; [16]): 192 ± 28 mg glucose/dL | Mean mg glucose/dL before Tmt (diabetic rats [4]; [16]): 422 ± 27 mg glucose/dL | Changes of mg glucose/dL (diabetic rats [4]; [16]): 230 ± 14 mg glucose/dL | Mean mg glucose/dL after Tmt (diabetic rats [4]; [17]): 353 ± 37 mg glucose/dL | Mean mg glucose/dL before Tmt (diabetic rats [4]; [17]): 411 ± 22 mg glucose/dL | Changes of mg glucose/dL (diabetic rats [4]; [17]): 58 ± 47 mg glucose/dL | Mean mg glucose/dL after Tmt (diabetic rats [4]; [18]): 216 ± 23 mg glucose/dL | Mean mg glucose/dL before Tmt (diabetic rats [4]; [18]): 342 ± 20 mg glucose/dL | Changes of mg glucose/dL (diabetic rats [4]; [18]): 126 ± 34 mg glucose/dL | Mean mg glucose/dL after Tmt (diabetic rats [4]; [19]): 367 ± 47 mg glucose/dL | Mean mg glucose/dL before Tmt (diabetic rats [4]; [19]): 417 ± 8 mg glucose/dL | Changes of mg glucose/dL (diabetic rats [4]; [19]): 50 ± 41 mg glucose/dL | Mean mg glucose/dL after Tmt (diabetic rats [4]; [20]): 221 ± 12 mg glucose/dL | Mean mg glucose/dL before Tmt (diabetic rats [4]; [20]): 314 ± 24 mg glucose/dL | Changes of mg glucose/dL (diabetic rats [4]; [20]): 93 ± 32 mg glucose/dL | Mean mg glucose/dL after Tmt (diabetic rats [4]; [21]): 314 ± 20 mg glucose/dL | Mean mg glucose/dL before Tmt (diabetic rats [4]; [21]): 359 ± 46 mg glucose/dL | Changes of mg glucose/dL (diabetic rats [4]; [21]): 45 ± 16 mg glucose/dL | amount of C-Hispro intake for the most dramatic improvement of symptoms of diabetes (diabetic rats [4]; based on Tables 9 and 10): about 300 μg/kg/day
